Assay results: patent publication US20240299436A1, “Use of Inosine in Preparing Drug For Treatment of Corona Virus Disease 2019” (PLA ACADEMY OF MILITARY MEDICAL SCIENCES, priority 2021, published 2024)

Columns and labels:
SARS-COV-2 [1] = assay: Survival and body weight of SARS-COV-2-infected Balb/c mice; assay type: in vivo; settings: preventive administration of inosine
SARS-COV-2 [2] = assay: Lung tissue pathology by H&E staining in SARS-COV-2-infected mice; assay type: in vivo, mouse; settings: oral inosine administration group vs SARS-COV-2 infection group
Text: The effect of inosine on pathological changes of lung tissue was observed by hematoxylin and eosin (H&E) staining.

IL-6 = assay: Serum cytokine IL-6 level by ELISA in SARS-COV-2-infected mice; assay type: in vivo, mouse; settings: inosine group
Description: In the process of cytokine storm (CRS), IL-6 is one of the most critical cytokines, and severity of the CRS is closely related to the increase in IL-6. In the cytokine storm induced by SARS-COV-2, IL-6 plays an important role. In order to determine whether the inosine could inhibit the secretion of IL-6, the level of cytokine IL-6 in mouse serum was determined by ELISA.

Structure (SMILES): OC[C@H]1O[C@@H](n2cnc3c(O)ncnc32)[C@H](O)[C@@H]1O [inosine]
- day after infection on which body weights regained gradually (SARS-COV-2 [1]): 8 days
- weight loss (SARS-COV-2 [1]; vs model group): lower weight loss
- survival time of the Balb/c mice (SARS-COV-2 [1]; vs model group (died on days 4-7)): significantly prolonged
- inflammatory infiltration of lung tissue (SARS-COV-2 [2]): significantly improved
- pathological changes of lung tissue (H&E staining) (SARS-COV-2 [2]): the lung tissues were structurally intact, alveolar space was clear, no congestion was noted in the pulmonary alveolar wall
- level of cytokine IL-6 in mouse serum (IL-6): could inhibit the high expression of SARS-COV-2 induced IL-6
